In US12433901B2, “Compounds and methods for prevention and treatment of coronavirus infections” (ARJIL BIOTECH HOLDING COMPANY LIMITED, priority 2020, dated 2025):
Values joined by “and” are separate entries in the source; they are usually repeats but may differ in a detail not shown here. Identical values can stand only once.

Molecular target: SARS-CoV-2 3CLpro (Severe acute respiratory syndrome coronavirus 2, UniProt P0DTD1)
Test: ED-FRET protease assay with SARS-CoV-2 3CLpro (DABCYL-[…]-EDANS IQF peptide substrate)
Assay type: biochemical
Details: for inhibitory effect on peptide-cleaving activity of SARS-CoV-2 3CLpro (in words): compound 20 μM, FIG. 1; for IC50: IC50, relative 3CLpro activity
[1] = 0.125 μM SARS-CoV-2 3CLpro and 1.25 μM IQF peptide substrate (0.125p/1.25FP)

Structure (SMILES): C=C(CC[C@@H](C)[C@H]1CC[C@H]2C3=C(C(=O)C[C@]12C)[C@@]1(C)CC[C@@H](O)[C@](C)(O)[C@@H]1C[C@@H]3O)[C@@H](C)C(=O)O (stereo in doubt) [AR101 DS1]
- inhibitory effect on peptide-cleaving activity of SARS-CoV-2 3CLpro (in words): inhibitory effect

Structure (SMILES): C=C1C(=O)O[C@H]2/C=C(\C)CC3C=C(CC/C=C(\C)CC[C@H]12)C(=O)O3 (stereo partly drawn) [AR100 DS1]
- IC50 [1]: 21.3 µM
- inhibitory effect on peptide-cleaving activity of SARS-CoV-2 3CLpro (in words): inhibitory effect

Structure (SMILES): C=C(CC[C@@H](C(=O)O)[C@H]1C[C@H](OC(C)=O)[C@@]2(C)C3=C(CC[C@]12C)[C@@]1(C)CC[C@H](O)C(C)(C)[C@@H]1CC3)C(C)C [AR101 DS3]
- IC50 [1]: 11.7 µM
- IC50 (0.25 μM SARS-CoV-2 3CLpro and 2.5 μM IQF peptide substrate): 11.1 µM
- IC50 (0.5 μM SARS-CoV-2 3CLpro and 5 μM IQF peptide substrate (0.5p/5FP)): 14.6 µM and 11.1 µM
- inhibitory effect on peptide-cleaving activity of SARS-CoV-2 3CLpro (in words): utmost inhibitory effect
- inhibition at 20 µM (read-out: SARS-CoV-2 3CLpro inhibition): ~50%

Structure (SMILES): C=C(CC[C@@H](C(=O)O)[C@H]1CC[C@@]2(C)C3=CC[C@H]4C(C)(C)[C@@H](O)CC[C@]4(C)C3=CC[C@]12C)C(C)C [AR101 DS4]
- inhibitory effect on peptide-cleaving activity of SARS-CoV-2 3CLpro (in words): inhibitory effect
